In the OligoGym collection:
HELM strings list units from the 5' end as sugar, base in round brackets, then linkage (d deoxyribose, r ribose, m 2'-O-methyl, p phosphodiester). Strings are as the collection lists them; they lack the last nucleoside at the 3' end of the tested compound. [moe] = 2'-O-(2-methoxyethyl) (MOE); [sp] = phosphorothioate linkage; [m5C] = 5-methylcytosine

Molecular target: UBE3A-ATS
Test: mouse, dose not given
Settings: ASO

With “RNA1{[moe](G)[sp].[moe](T)p.[moe](A)p.[moe](T)p.[moe](A)p.d(T)[sp].d(A)[sp].d([m5C])[sp].d(T)[sp].d([m5C])[sp].d([m5C])[sp].d(A)[sp].d(G)[sp].d(G)[sp].d(T)[sp].[moe](T)p.[moe](G)p.[moe](T)[sp].[moe](G)}$$$$ (last 3' nucleoside missing)” the 3 h FOB score was 5.2 score 0-7.
Substance “RNA1{[moe](G)[sp].[moe](T)p.[moe](A)p.[moe](T)p.[moe](A)p.d(T)[sp].d(T)[sp].d(A)[sp].d(G)[sp].d(T)[sp].d([m5C])[sp].d(T)[sp].d(A)[sp].d(A)[sp].d(G)[sp].[moe](G)p.[moe]([m5C])p.[moe](A)[sp].[moe](G)}$$$$ (last 3' nucleoside missing)” has a 3 h FOB score of 3.7 score 0-7.
In the case of “RNA1{[moe](G)[sp].[moe](T)p.[moe](A)p.[moe](T)p.[moe](A)p.d(T)[sp].d(T)[sp].d(G)[sp].d(T)[sp].d(A)[sp].d(G)[sp].d([m5C])[sp].d(T)[sp].d(T)[sp].d(T)[sp].[moe](T)p.[moe]([m5C])p.[moe](T)[sp].[moe](A)}$$$$ (last 3' nucleoside missing)”, the 3 h FOB score is reported as 6.2 score 0-7.
“RNA1{[moe](G)[sp].[moe](T)p.[moe](A)p.[moe](T)p.[moe](G)p.d(G)[sp].d(T)[sp].d(A)[sp].d(T)[sp].d([m5C])[sp].d(T)[sp].d(T)[sp].d(G)[sp].d([m5C])[sp].d(A)[sp].[moe](G)p.[moe](T)p.[moe](A)[sp].[moe](G)}$$$$ (last 3' nucleoside missing)” was tested, and the 3 h FOB score was 5.2 score 0-7.
For “RNA1{[moe](G)[sp].[moe](T)p.[moe](A)p.[moe](T)p.[moe](T)p.d(G)[sp].d(A)[sp].d([m5C])[sp].d(A)[sp].d([m5C])[sp].d([m5C])[sp].d(T)[sp].d([m5C])[sp].d([m5C])[sp].d(A)[sp].[moe](A)p.[moe]([m5C])p.[moe](T)[sp].[moe](G)}$$$$ (last 3' nucleoside missing)”, the 3 h FOB score was 2 score 0-7.
Substance “RNA1{[moe](G)[sp].[moe](T)p.[moe](A)p.[moe](T)p.[moe]([m5C])p.d(A)[sp].d(G)[sp].d(G)[sp].d([m5C])[sp].d(A)[sp].d(A)[sp].d([m5C])[sp].d(A)[sp].d(G)[sp].d(A)[sp].[moe](A)p.[moe](T)p.[moe]([m5C])[sp].[moe](T)}$$$$ (last 3' nucleoside missing)” has a 3 h FOB score of 4.3 score 0-7.
For “RNA1{[moe](G)[sp].[moe](T)p.[moe](A)p.[moe]([m5C])p.[moe](A)p.d(A)[sp].d(T)[sp].d(G)[sp].d([m5C])[sp].d(A)[sp].d(T)[sp].d(G)[sp].d(T)[sp].d(G)[sp].d(G)[sp].[moe](G)p.[moe]([m5C])p.[moe]([m5C])[sp].[moe](T)}$$$$ (last 3' nucleoside missing)”, the 3 h FOB score was 4 score 0-7.
“RNA1{[moe](G)[sp].[moe](T)p.[moe](A)p.[moe]([m5C])p.[moe](A)p.d([m5C])[sp].d(T)[sp].d(A)[sp].d(T)[sp].d(T)[sp].d(G)[sp].d(T)[sp].d(T)[sp].d(T)[sp].d(T)[sp].[moe](G)p.[moe](A)p.[moe](T)[sp].[moe](A)}$$$$ (last 3' nucleoside missing)” was tested, and the 3 h FOB score was 2.5 score 0-7.
“RNA1{[moe](G)[sp].[moe](T)p.[moe](A)p.[moe]([m5C])p.[moe](T)p.d([m5C])[sp].d(A)[sp].d(T)[sp].d([m5C])[sp].d(A)[sp].d(T)[sp].d(G)[sp].d(A)[sp].d(T)[sp].d([m5C])[sp].[moe](T)p.[moe](T)p.[moe](G)[sp].[moe](G)}$$$$ (last 3' nucleoside missing)” was tested, and the 3 h FOB score was 2 score 0-7.
In the case of “RNA1{[moe](G)[sp].[moe](T)p.[moe](G)p.[moe](A)[sp].d(G)[sp].d([m5C])[sp].d(T)[sp].d(A)[sp].d(T)[sp].d([m5C])[sp].d(T)[sp].d(G)[sp].[moe](T)p.[moe](A)p.[moe]([m5C])p.[moe](A)[sp].[moe](A)}$$$$ (last 3' nucleoside missing)”, the 3 h FOB score is reported as 1.7 score 0-7.
“RNA1{[moe](G)[sp].[moe](T)p.[moe](G)p.[moe](A)p.[moe](G)[sp].d([m5C])[sp].d(T)[sp].d(A)[sp].d(T)[sp].d([m5C])[sp].d(T)[sp].d(G)[sp].d(T)[sp].[moe](A)p.[moe]([m5C])p.[moe](A)[sp].[moe](A)}$$$$ (last 3' nucleoside missing)” was tested, and the 3 h FOB score was 1 score 0-7.
For “RNA1{[moe](G)[sp].[moe](T)p.[moe](G)p.[moe](A)p.[moe](G)p.[moe]([m5C])[sp].d(T)[sp].d(A)[sp].d(T)[sp].d([m5C])[sp].d(T)[sp].d(G)[sp].d(T)[sp].d(A)[sp].[moe]([m5C])p.[moe](A)[sp].[moe](A)}$$$$ (last 3' nucleoside missing)”, the 3 h FOB score was 4.7 score 0-7.
“RNA1{[moe](G)[sp].[moe](T)p.[moe](G)p.[moe](A)p.[moe](G)p.[moe]([m5C])p.d(T)[sp].d(A)[sp].d(T)[sp].d([m5C])[sp].d(T)[sp].d(G)[sp].d(T)[sp].d(A)[sp].d([m5C])[sp].d(A)[sp].[moe](A)p.[moe](A)[sp].[moe](A)}$$$$ (last 3' nucleoside missing)” gave a 3 h FOB score of 1.3 score 0-7.
Work on “RNA1{[moe](G)[sp].[moe](T)p.[moe](G)p.[moe](A)p.[moe](G)p.d([m5C])[sp].d(T)[sp].d(A)[sp].d(T)[sp].d([m5C])[sp].d(T)[sp].d(G)[sp].d(T)[sp].d(A)[sp].d([m5C])[sp].[moe](A)p.[moe](A)p.[moe](A)[sp].[moe](A)}$$$$ (last 3' nucleoside missing)” yielded a 3 h FOB score of 3.2 score 0-7.
Work on “RNA1{[moe](G)[sp].[moe](T)p.[moe](G)p.[moe](A)p.[moe](G)p.d([m5C])[sp].d(T)[sp].d(T)[sp].d(T)[sp].d(A)[sp].d([m5C])[sp].d(T)[sp].d([m5C])[sp].d(T)[sp].d(G)[sp].[moe]([m5C])p.[moe](A)p.[moe](A)[sp].[moe](T)}$$$$ (last 3' nucleoside missing)” yielded a 3 h FOB score of 1 score 0-7.
For “RNA1{[moe](G)[sp].[moe](T)p.[moe](G)p.[moe](A)p.d(G)[sp].d([m5C])[sp].d(T)[sp].d(A)[sp].d(T)[sp].d([m5C])[sp].d(T)[sp].d(G)[sp].d(T)[sp].d(A)[sp].[moe]([m5C])p.[moe](A)p.[moe](A)p.[moe](A)[sp].[moe](A)}$$$$ (last 3' nucleoside missing)”, the 3 h FOB score was 4 score 0-7.
“RNA1{[moe](G)[sp].[moe](T)p.[moe](G)p.[moe](G)p.[moe](T)p.d(T)[sp].d(G)[sp].d([m5C])[sp].d([m5C])[sp].d(T)[sp].d(T)[sp].d(A)[sp].d(G)[sp].d(T)[sp].d(A)[sp].[moe](T)p.[moe](T)p.[moe](A)[sp].[moe]([m5C])}$$$$ (last 3' nucleoside missing)” gave a 3 h FOB score of 2.2 score 0-7.
With “RNA1{[moe](G)[sp].[moe](T)p.[moe](G)p.[moe](G)p.[moe](T)p.d(T)[sp].d(T)[sp].d([m5C])[sp].d([m5C])[sp].d(A)[sp].d(G)[sp].d([m5C])[sp].d(A)[sp].d(G)[sp].d(G)[sp].[moe](G)p.[moe](T)p.[moe](G)[sp].[moe](T)}$$$$ (last 3' nucleoside missing)” the 3 h FOB score was 5.8 score 0-7.
“RNA1{[moe](G)[sp].[moe](T)p.[moe](G)p.[moe](G)p.[moe](T)p.d([m5C])[sp].d(A)[sp].d(G)[sp].d(A)[sp].d(T)[sp].d(T)[sp].d([m5C])[sp].d([m5C])[sp].d(T)[sp].d(A)[sp].[moe](A)p.[moe](A)p.[moe](T)[sp].[moe](A)}$$$$ (last 3' nucleoside missing)” gave a 3 h FOB score of 0 score 0-7.
“RNA1{[moe](G)[sp].[moe](T)p.[moe](G)p.[moe](T)p.[moe](G)p.[moe](T)p.d(T)[sp].d(T)[sp].d(T)[sp].d(T)[sp].d([m5C])[sp].d([m5C])[sp].d(A)[sp].d(T)[sp].d(T)[sp].d(T)[sp].[moe](T)p.[moe](T)[sp].[moe]([m5C])}$$$$ (last 3' nucleoside missing)” gave a 3 h FOB score of 0 score 0-7.
Work on “RNA1{[moe](G)[sp].[moe](T)p.[moe](G)p.[moe](T)p.[moe](G)p.d(G)[sp].d(A)[sp].d(T)[sp].d(G)[sp].d(G)[sp].d(T)[sp].d(A)[sp].d(T)[sp].d([m5C])[sp].d([m5C])[sp].[moe](T)p.[moe](G)p.[moe](G)[sp].[moe](T)}$$$$ (last 3' nucleoside missing)” yielded a 3 h FOB score of 5.5 score 0-7.
“RNA1{[moe](G)[sp].[moe](T)p.[moe](G)p.[moe](T)p.[moe](G)p.d(T)[sp].d(G)[sp].d([m5C])[sp].d(A)[sp].d(A)[sp].d(T)[sp].d(A)[sp].d(G)[sp].d([m5C])[sp].d([m5C])[sp].[moe](T)p.[moe](A)p.[moe](A)[sp].[moe](A)}$$$$ (last 3' nucleoside missing)” showed a 3 h FOB score of 3.5 score 0-7.
“RNA1{[moe](G)[sp].[moe](T)p.[moe](G)p.[moe](T)p.[moe](G)p.d(T)[sp].d(T)[sp].d(T)[sp].d(T)[sp].d(T)[sp].d([m5C])[sp].d([m5C])[sp].d(A)[sp].d(T)[sp].d(T)[sp].[moe](T)p.[moe](T)p.[moe](T)[sp].[moe]([m5C])}$$$$ (last 3' nucleoside missing)” showed a 3 h FOB score of 0 score 0-7.
“RNA1{[moe](G)[sp].[moe](T)p.[moe](G)p.[moe](T)p.[moe](G)p.d([m5C])[sp].d([m5C])[sp].d(A)[sp].d(T)[sp].d(A)[sp].d(G)[sp].d(G)[sp].d(T)[sp].d(T)[sp].d(T)[sp].[moe]([m5C])p.[moe](A)p.[moe](G)[sp].[moe](G)}$$$$ (last 3' nucleoside missing)” showed a 3 h FOB score of 2.8 score 0-7.
Work on “RNA1{[moe](G)[sp].[moe](T)p.[moe](G)p.[moe](T)p.[moe](T)p.[moe](T)p.d(T)[sp].d(T)[sp].d([m5C])[sp].d([m5C])[sp].d(A)[sp].d(T)[sp].d(T)[sp].d(T)[sp].d(T)[sp].d(T)[sp].[moe]([m5C])p.[moe](T)[sp].[moe]([m5C])}$$$$ (last 3' nucleoside missing)” yielded a 3 h FOB score of 0 score 0-7.
“RNA1{[moe](G)[sp].[moe](T)p.[moe](G)p.[moe](T)p.[moe](T)p.d(T)[sp].d(A)[sp].d(T)[sp].d([m5C])[sp].d([m5C])[sp].d(A)[sp].d(A)[sp].d(A)[sp].d([m5C])[sp].d([m5C])[sp].[moe](A)p.[moe](A)p.[moe](G)[sp].[moe](G)}$$$$ (last 3' nucleoside missing)” showed a 3 h FOB score of 3 score 0-7.
Substance “RNA1{[moe](G)[sp].[moe](T)p.[moe](G)p.[moe](T)p.[moe](T)p.d(T)[sp].d(T)[sp].d(T)[sp].d([m5C])[sp].d([m5C])[sp].d(A)[sp].d(T)[sp].d(T)[sp].d(T)[sp].d(T)[sp].[moe](T)p.[moe]([m5C])p.[moe](T)[sp].[moe]([m5C])}$$$$ (last 3' nucleoside missing)” has a 3 h FOB score of 0 score 0-7.
